Series [1] relates to Kunming mice. The following applies: for Adipocyte density (n/mm^2): day 42, M±SEM.
Method: In this example, 6-week-old Kunming mice (20-30 g) were used as the model. A total of 200 µL of different drugs was injected subcutaneously at multiple sites with multiple needles into the left inguinal region of each mouse. The experimental groups were set as follows. • 1) Negative control group (n = 9): 200 µL of sterile normal saline; • 2) Sodium deoxycholate group (n = 9): 200 µL of 1% sodium deoxycholate sterile normal saline solution; and • 3) Surfactin HXRZ group (n = 9): 200 µL of 1% surfactin HXRZ sterile normal saline solution.
On day 42 of the experiment, the mice were sacrificed and dissected. The left inguinal adipose tissue was harvested, fixed immediately in adipose tissue fixative and then embedded in paraffin. […] The adipocyte density was then calculated.
Statistical analysis was performed by using ulceration as an indicator of severe local inflammation and subcutaneous nodules and induration as indicators of mild local inflammation.
Series [2] deals with transgenic obese (ob/ob) mice. Conditions: for degradation of adipose tissue (H-E sections, FIG. 6): Example 5, 200 µL, one mouse.
Method: 6-week-old transgenic obese (ob/ob) mice were used as the animal model. Different drugs were injected into the adipose pads of the left buttock. The mice were totally divided into three groups with 7-10 mice per group, as specified below. • 1) Negative control group: injected with 200 µL of sterile normal saline; • 2) 1% sodium deoxycholate group: injected with 200 µL of sterile normal saline solution containing 1% sodium deoxycholate; • 3) 0.1% surfactin HXRZ group: injected with 200 µL of sterile normal saline solution containing 0.1% surfactin HXRZ.
The day of the first administration was defined as Day 1 of the experiment. Additional administrations were performed on Day 3 and Day 5, respectively. The general condition and administration sites of the mice were observed regularly throughout the experiment. On Day 21 of the experiment, the mice were sacrificed and dissected. The adipose tissue of the left buttock was isolated, fixed immediately in adipose tissue fixative, and then embedded in paraffin. The adipose tissue was stained by hematoxylin and eosin staining for pathological examination, followed by observation and analysis under an optical microscope.
Specifically, 6-week-old transgenic obese (ob/ob) mice were used as the animal model, with one mouse per group. 200 µL each of 0.5% and 1% surfactin HXRZ normal saline solutions (test samples) were injected into the adipose pads of the left buttock, respectively. The day of the first administration was defined as Day 1 of the experiment. Additional administrations were performed on Day 3 and Day 5, respectively. The general condition and administration sites of the mice were observed regularly throughout the experiment. On Day 21 of the experiment, the mice were sacrificed and dissected. The adipose tissue of the left buttock of the mice was isolated, fixed immediately in adipose tissue fixative, and then embedded in paraffin. The adipose tissue was stained by hematoxylin and eosin staining for pathological examination, followed by observation and analysis under an optical microscope.
Series [3] relates to Kunming mice.
Method: 6-week-old Kunming mice (weighing 20-30 g) were used as the model. A total of 200 µL of different drugs was injected subcutaneously at multiple sites with multiple needles into the left inguinal region of each mouse. The experimental groups were set as follows: • 1) Negative control group (n = 3): 200 µL of sterile normal saline; • 2) 1% sodium deoxycholate group (n = 3): 200 µL of 1% sodium deoxycholate normal saline solution; • 3) 2% sodium deoxycholate group (n = 3): 200 µL of 2% sodium deoxycholate normal saline solution; • 4) 0.5% surfactin HXRZ group (n = 3): 200 µL of 0.5% surfactin HXRZ normal saline solution; • 5) 1% surfactin HXRZ group (n = 3): 200 µL of 1% surfactin HXRZ normal saline solution; • 6) 2% surfactin HXRZ group (n = 3): 200 µL of 2% surfactin HXRZ normal saline solution;
Administration was performed once every 7 days. Ulceration at the administration site of each mouse was observed throughout the administration period. On day 21 of the experiment, all mice were sacrificed and dissected.
Series [4] deals with Mouse adipocyte cell line 3T3-F442A. Briefly: In vitro cytotoxicity test: relative growth rate of cells by CCK-8. The format is cell-based. The following applies: for relative growth rate: X±SD.
Method: Mouse adipocyte cell line 3T3-F442A in the logarithmic growth phase was seeded into a 96-well plate at a density of 1×10^5 cells/mL, with 100 µL per well. The culture medium consisted of a basal culture medium supplemented with 10% fetal bovine serum. The seeded cells were incubated conventionally in a carbon dioxide incubator at 37°C and 5% CO2 for 24 h.
The solution was freshly prepared before use.
After routine incubation for 24 h, the old culture medium was discarded, and then 100 µL of sample solution was added to replace it in the experimental group. An equal volume of serum-free culture medium was added to the normal control group. Each concentration was set up with at least three replicate wells.
After another incubation for 24 h, the relative growth rate of cells was detected by CCK-8. The culture medium was discarded, 100 µL of CCK-8 diluted 10-fold with the serum-free medium was added to each well. The plate was incubated in a cell incubator for another 2 h. The absorbance was determined using a microplate reader at a wavelength of 450 nm. The relative growth rate (RGR) is a ratio of the absorbance of the experimental group to the absorbance of the normal control group.
3T3-F442A mouse adipocytes in the logarithmic growth phase were seeded into a 96-well plate at a density of 1 × 10^5 cells/mL, with 100 µL per well. After incubation for 24 h, the culture medium was replaced with 100 µL of culture medium containing different concentrations of samples. An equal volume of serum-free culture medium was added to the blank control group, and the incubation was continued for another 24 h. The relative growth rate of cells was determined by CCK-8. The blank control was set as 100%, the relative growth rate and half inhibitory concentration of each group were calculated.
The nature of series [5]: Surface tension at serial dilutions (CMC value determination), automatic interfacial tensiometer. The format is physicochemical. As for the experimental part: A 0.1% surfactin HXRZ solution and a sodium deoxycholate solution were separately prepared using purified water, followed by serial dilution to obtain different gradient concentrations. The surface tensions at different concentrations were determined respectively via a JZ-200A automatic interfacial tensiometer. Table 1 CMC value determination results

Series [6] has as its system Female Kunming mice. Put plainly: Animal experiment comparing surfactin-C14 and surfactin-C15: subcutaneous injection in right inguinal region, four administrations. The following applies: for Mean adipocyte area (x±SEM, mm^2) / Mean adipocyte density (x±SEM, n/mm^2): H-E sections.
Method: Female Kunming mice (aged 7-8 weeks, weighing 25.55-33.76 g) were taken, ranked in ascending order of body weight, and divided into groups of 7-8 mice using a Latin method. The tails of mice in each cage were marked and distinguished with an oil-based permanent marker.
Based on the injection dose of the positive drug reported in the literature, the subcutaneous injection dose for this test was determined to be 10 mg/mL at a volume of 200 µL. Subcutaneous injection was performed using a four-needle mesotherapy tip (34 G, 1.5 mm long, inner diameter 0.6 mm). Administration was performed sequentially from top to bottom along the right inguinal region. Administration was performed once every 14 days for a total of four administrations.
During the administration period, food intake, water consumption and general activity of all experimental animals in each group were observed daily under identical feeding conditions and housing environments. Daily observation was performed on each mouse to check for ulceration, induration and other lesions at the administration site. 14 days after the second administration, two mice from each group were sacrificed and dissected. All the remaining mice were sacrificed and dissected 14 days after the fourth administration.
In this example, changes in adipose tissue at the administration sites of experimental mice were statistically analyzed. Specifically, the adipose tissue was excised from the inguinal region on the inoculated side (right side), weighed and recorded. The adipose tissue-to-body weight percentage of the inoculated side for each mouse was then calculated using the formula: [(weight of adipose tissue on the inoculated side/body weight of the mouse) × 100%].
Further statistical analysis was performed on adipocyte density and adipocyte area. The adipose tissue from the inoculated side was immersed in adipose tissue fixative and sent for hematoxylin-eosin (H-E) staining. After imaging was completed, all measurements were standardized in millimeters. The area of adipose tissue in each image was measured, and the number of adipocytes in each image was counted. The area of a single adipocyte was calculated as: adipocyte area = total adipose tissue area/adipocyte number; adipocyte density = adipocyte number/total adipose tissue area.
[7] abbreviates: Example 8, 0.005 mg/mL, 24 h, 3T3-F442A.
The mark [8] stands for this setting: Example 8, 0.01 mg/mL, 24 h, 3T3-F442A.
Where [9] appears, read: Example 8, 0.02 mg/mL, 24 h, 3T3-F442A.
[10] abbreviates: Example 8, 0.04 mg/mL, 24 h, 3T3-F442A.
Setting [11] is: Example 8, 0.08 mg/mL, 24 h, 3T3-F442A.
[12] abbreviates: 1 mg/mL (low-dose), four administrations.
The mark [13] stands for this setting: 5 mg/mL (medium-dose), four administrations.
The mark [14] stands for this setting: 10 mg/mL, four administrations once every 14 days, right inguinal.

Where two headings read alike, the source gives them in different places.

Consider surfactin [Surfactin HXRZ], for which the “Adipose tissue weight” value in series [1] (1 %, 200 µL s.c. left inguinal, once every 14 days, day 42, n = 9) was found to be 0.2007 ± 0.0365 g. Moreover, the “Adipocyte density (n/mm^2)” value is 676.94±51.326 n/mm^2 in series [1] (1 %, 200 µL s.c.) and 676.94±51.326 n/mm^2 in series [1] (1 %, 200 µL s.c., listed as surfactin HXRZ). Moreover, the “Fat index (%)” value in series [1] (1 %, 200 µL s.c., day 42, treated-side inguinal adipose weight/body weight × 100%) was 0.50±0.10 %. For the same substance, the Ulceration in series [1] (mouse, in vivo) was 0. Further, in series [1] (mouse, in vivo), the “ulceration at the administration sites over the administration cycle” value is “no ulceration occurred at the administration sites”. In addition, the “degradation of adipose tissue at the administration sites (H-E sections, FIG. 5)” value in series [2] (Example 4, 0.1 %, 200 µL in normal saline, left buttock, Days 1, 3, 5, Day 21) was “induced the degradation of adipose tissue at the administration sites”. Besides, the “degradation of adipose tissue (H-E sections, FIG. 6)” value in series [2] (0.5 %, left buttock, Days 1, 3, 5, Day 21) is recorded as “induced the degradation of adipose tissue in mice”; in series [2] (1 %, left buttock, Days 1, 3, 5, Day 21), “induced the degradation of adipose tissue in mice”. Besides, in series [2] (mouse, in vivo), the “induration / ulceration at the administration sites” value is on record as “No such phenomena were observed”. Also, in series [3] (0.5 %, treated side vs untreated side), the “degradation of inguinal adipose tissue at the administration sites (dissection, FIG. 9)” value is listed as “a certain degree of degradation”. Moreover, the “degree of ulceration at the administration sites compared with sodium deoxycholate” value in series [3] (mouse, in vivo) is on record as “milder than that in the 2% sodium deoxycholate group”. In addition, the “degree of ulceration compared with sodium deoxycholate” value in series [3] (mouse, in vivo) is given as “milder than that in the 1% sodium deoxycholate group”. Also, the healing of ulceration entry in series [3] (mouse, in vivo) was “healed completely”. The healing of ulcers entry in series [3] (mouse, in vivo) was “failed to heal”. For the same substance, in series [3] (mouse, in vivo, sc), the “ulceration at the injection sites” value was “no ulceration occurred at the injection sites”. Also, the “treatment time at which adipocytes were completely lysed” value in series [4] (0.08 mg/mL) is recorded as 24 h. Moreover, the “cell morphology of adipocytes (inverted microscope, FIG. 4)” value in series [4] (0.08 mg/mL, 24 h) is reported as “nearly all cells died”. Further, the “half maximal inhibitory concentrations IC50” value in series [4] (3T3-F442A adipocytes, 24 h, calculated from Table 2 curves) was 27.1 µg/mL. Also, the “Relative growth rate (%)” value in series [4] (Example 2, 0.005 mg/mL, 24 h, 3T3-F442A) is listed as 101.2±15.71%; in series [4] (Example 2, 0.01 mg/mL, 24 h, 3T3-F442A) it was 90.23±4.30%; in series [4] (Example 2, 0.02 mg/mL, 24 h, 3T3-F442A), 67.56±3.81%; in series [4] (Example 2, 0.04 mg/mL, 24 h, 3T3-F442A), 19.34±1.43%; in series [4] (Example 2, 0.08 mg/mL, 24 h, 3T3-F442A), 10.74±0.51%; in series [4] (Example 3, 0.02 mg/mL, 0.5 h), 75.21±4.86%. In addition, the “Relative growth rate (%)” value is 61.07±5.11% in series [4] (Example 3, 0.02 mg/mL, 4 h); 67.56±0.09% in series [4] (Example 3, 0.02 mg/mL, 24 h); 59.48±3.47% in series [4] (Example 3, 0.04 mg/mL, 0.5 h); 37.95±1.99% in series [4] (Example 3, 0.04 mg/mL, 4 h); 19.34±0.03% in series [4] (Example 3, 0.04 mg/mL, 24 h); 32.81±6.73% in series [4] (Example 3, 0.08 mg/mL, 0.5 h). Besides, the “Relative growth rate (%)” value is 24.38±3.37% in series [4] (Example 3, 0.08 mg/mL, 4 h) and 10.74±0.01% in series [4] (Example 3, 0.08 mg/mL, 24 h). The relative growth rate in series [4] (setting [7]) is reported as 103.67±1.59 b, c %; in series [4] (setting [8]), 67.49±5.46 a, b, c %; in series [4] (setting [9]) it was 20.76±5.32 a, b, c %; in series [4] (setting [10]) it was 9.99±0.38 b %; in series [4] (setting [11]), 9.01±0.06 b, c %. For the same substance, the Surface tension value is 39.08 mN/m in series [5] (solution concentration 0.00078125 % in purified water); 38.38 mN/m in series [5] (solution concentration 0.0015625 % in purified water); 37.64 mN/m in series [5] (solution concentration 0.003125 % in purified water); 37.16 mN/m in series [5] (solution concentration 0.00625 % in purified water); 36.28 mN/m in series [5] (solution concentration 0.0125 % in purified water); 35.64 mN/m in series [5] (solution concentration 0.025 % in purified water). For the same substance, the Surface tension value in series [5] (solution concentration 0.05 % in purified water) is reported as 33.43 mN/m; in series [5] (solution concentration 0.05 % in purified water, listed as surfactin HXRZ), 33 mN/m; in series [5] (solution concentration 0.1 % in purified water) it was 33.69 mN/m.

For surfactin-C13 [HXRZ-A], the relative growth rate in series [4] (setting [7]) is listed as 97.66±3.27 c %; in series [4] (setting [8]), 97.00±3.13 b, c %; in series [4] (setting [9]), 34.74±3.25 #, b, c %; in series [4] (setting [10]), 9.83±0.36 %; in series [4] (setting [11]), 9.27±0.24 b, c %.

For the substance surfactin-C14 [HXRZ-B], the “Mean adipocyte area (x±SEM, mm^2)” value amounted to 0.00284±0.000267 mm^2 in series [6] (1 mg/mL (low-dose)); 0.003554±0.00047 mm^2 in series [6] (5 mg/mL (medium-dose)); 0.003177±0.000284 mm^2 in series [6] (10 mg/mL, four administrations). Moreover, the “Mean adipocyte density (x±SEM, n/mm^2)” value in series [6] (1 mg/mL (low-dose)) turned out to be 418.7156±85.9688 n/mm^2; in series [6] (5 mg/mL (medium-dose)) it was 313.2046±85.5687 n/mm^2; in series [6] (10 mg/mL, four administrations), 340.3195±31.7463 n/mm^2. Further, the “Mean wet adipose tissue weight (x±SEM, unit: g)” value was 0.326 ± 0.106 g in series [6] (setting [12]), 0.225 ± 0.039 g in series [6] (setting [13]) and 0.232 ± 0.032 g in series [6] (setting [14]). In addition, the “Mean wet adipose tissue weight/body weight percentage (x±SEM, %)” value in series [6] (setting [12]) stood at 0.76±0.21%; in series [6] (setting [13]), 0.56±0.08 %; in series [6] (10 mg/mL, four administrations), 0.58±0.07 %. The relative growth rate in series [4] (setting [7]) is recorded as 89.75±7.04 #, c %; in series [4] (setting [8]), 46.22±4.26 #, a %; in series [4] (setting [9]) it was 14.74±0.48 #, a %; in series [4] (setting [10]), 9.02±0.37 #, c %; in series [4] (setting [11]), 8.11±0.24 #, a, c %.

Take surfactin-C15 [HXRZ-C]: the “Mean adipocyte area (x±SEM, mm^2)” value amounted to 0.003222±0.000161 mm^2 in series [6] (1 mg/mL (low-dose)); 0.003297±0.000274 mm^2 in series [6] (5 mg/mL (medium-dose)); 0.004632±0.000253 mm^2 in series [6] (10 mg/mL, four administrations). Further, the “Mean adipocyte density (x±SEM, n/mm^2)” value in series [6] (1 mg/mL (low-dose)) is given as 355.3684±57.4571 n/mm^2; in series [6] (5 mg/mL (medium-dose)), 328.9026±63.1322 n/mm^2; in series [6] (10 mg/mL, four administrations) it was 251.3400±31.0087 n/mm^2. The entries for the “Mean wet adipose tissue weight (x±SEM, unit: g)” value in series [6] (setting [12]), in series [6] (setting [13]) and in series [6] (setting [14]) were 0.198 ± 0.030 g, 0.209 ± 0.021 g and 0.188 ± 0.011 g, respectively. In addition, the “Mean wet adipose tissue weight/body weight percentage (x±SEM, %)” value in series [6] (setting [12]) worked out at 0.51±0.08 %; in series [6] (setting [13]) it was 0.53±0.05 %; in series [6] (10 mg/mL, four administrations) it was 0.48±0.02 %. The relative growth rate in series [4] (setting [7]) is reported as 76.06±3.24 #, a, b %; in series [4] (setting [8]) it was 43.53±3.35 #, a %; in series [4] (setting [9]), 17.61±1.76 #, a %; in series [4] (setting [10]), 10.29±0.38 b %; in series [4] (setting [11]), 10.31±0.48 *,#,a,b %. For the same substance, the “IC50 against adipocytes relative to HXRZ-A” value in series [4] (Example 8, 3T3-F442A, 24 h) was “approximately half that of HXRZ-A”.

The values above are taken from patent EP4744648A1, “LIPOPEPTIDE-CONTAINING FAT-DISSOLVING PRODUCT, AND PREPARATION METHOD THEREFOR AND USE THEREOF” (Bloomage Biotechnology Corporation Limited, priority 2023, dated 2024).
